Source: US9597407B2, “Targeted antimicrobial moieties” (C3 Jian, Inc., priority 2009, dated 2017)
“Also recorded” adds a separate entry of the source.

System: bacteria
Test: Binding of targeting peptides to microorganisms (Table 3)
Conditions: preferably 1x PBS
[1] = microorganism bound by the targeting peptide, binding in aqueous buffers chosen by peptide solubility
[2] = peptide binding in aqueous buffers that varied depending on peptide solubility
[3] = peptide binding in aqueous buffers varied by peptide solubility
[4] = microorganism the targeting peptide binds, binding in aqueous buffers that varied with peptide solubility

PF-262 (DPHSEIDVTRYCQLHHFTCQTMQISEREFHYLIETQ; Peptide with targeting and/or antimicrobial activity)
Target(s) [1]: S. mutans; also recorded: S. epidermidis; also recorded: M. luteus; also recorded: E. coli; also recorded: P. aeruginosa; also recorded: A. baumannii

PF-784 (MAMTTVDNIVGLVIAVALMAFLFAALLFPEKF; Peptide with targeting and/or antimicrobial activity)
Target(s) (microorganism bound by the targeting peptide) [2]: Mycobacteria spp.

PF-291 (DVDGAIESEL; Peptide with targeting and/or antimicrobial activity)
Target(s) [1]: S. mutans; also recorded: E. coli

PF-S018 (GMPQIPRLRI; Peptide with targeting and/or antimicrobial activity)
Target(s) (microorganism bound by the targeting peptide) [2]: S. epidermidis and M. luteus and C. albicans and MRSA and E. faecalis and C. jeikeium and C. jejuni

1T-28 (VSRDEAMEFIDREWTTLQPAGKSHA; Peptide with targeting and/or antimicrobial activity) [Peptide 1T-28]
Target(s) (microorganism bound by the targeting peptide) [3]: P. aeruginosa

1T-67 (GQRQRLTCGRVSGCSEGPSREAAR; Peptide with targeting and/or antimicrobial activity) [Peptide 1T-67]
Target(s) (microorganism bound by the targeting peptide) [3]: S. aureus; also recorded: S. epidermidis; also recorded: C. jeikeium; also recorded: C. xerosis; also recorded: C. striatum; also recorded: P. aeruginosa

1T-239 (ADDLLNKRLTDLIMENAETVKTIDLDNSD; Peptide with targeting and/or antimicrobial activity) [Peptide 1T-239]
Target(s) [4]: A. naeslundii; also recorded: S. gordonii; also recorded: S. mitis; also recorded: S. mutans; also recorded: S. oralis; also recorded: S. sanguinis

1T-83 (QKPRKNETFIGYIQRYDIDGNGYQSLPCPQN; Peptide with targeting and/or antimicrobial activity) [Peptide 1T-83]
Target(s) (microorganism bound by the targeting peptide) [3]: S. pneumoniae

1T-50 (HSDEPIPNILFKSDSVH; Peptide with targeting and/or antimicrobial activity) [Peptide 1T-50]
Target(s) (microorganism bound by the targeting peptide) [3]: P. aeruginosa

PF-060 (HSSHL; Peptide with targeting and/or antimicrobial activity)
Target(s) [4]: E. coli; also recorded: C. albicans; also recorded: C. jeikeium

PF-436 (KKHVLVGKQEKNG; Peptide with targeting and/or antimicrobial activity)
Target(s) (microorganisms bound by the targeting peptide) [2]: C. jeikeium

1T-260 (NILYFIHDENQWEPQKAEIFRGSIKHCAWLSS; Peptide with targeting and/or antimicrobial activity) [Peptide 1T-260]
Target(s) [4]: A. naeslundii; also recorded: P. gingivalis; also recorded: S. epidermidis; also recorded: S. gordonii; also recorded: S. mitis; also recorded: S. mutans; also recorded: S. oralis; also recorded: S. sanguinis

PF-S007 (VVAGVVLLTALAVGSKRKEKKQIKEIQRLLAATR; Peptide with targeting and/or antimicrobial activity)
Target(s) (microorganism bound by the targeting peptide) [2]: S. epidermidis and MRSA

PF-799 (YTHYNTALSYALLLTNKSSVP; Peptide with targeting and/or antimicrobial activity)
Target(s) (microorganism bound by the targeting peptide) [2]: S. mutans

PF-299 (LATKLKYEKEHKKM; Peptide with targeting and/or antimicrobial activity)
Target(s) [1]: B. subtilis

PF-323 (ARESIEKSHVPVDATIVGVVDSFEVFDE; Peptide with targeting and/or antimicrobial activity)
Target(s) [1]: S. mutans

1T-61 (HATLLPAVREAISRQLLPALVPRG; Peptide with targeting and/or antimicrobial activity) [Peptide 1T-61]
Target(s) (microorganism bound by the targeting peptide) [3]: P. aeruginosa

PF-765 (YLYWEVEHKPIIAKRDAYYAQLRKQKEIEEGA; Peptide with targeting and/or antimicrobial activity)
Target(s) (microorganism bound by the targeting peptide) [2]: S. epidermidis and M. luteus and E. coli and MRSA and E. faecalis and C. jeikeium

PF-245 (MNDVKPVVQPKQTLKAFLVQLLSVRAGVYIKQNNQLPKTKG; Peptide with targeting and/or antimicrobial activity)
Target(s) [1]: S. epidermidis; also recorded: M. luteus; also recorded: P. aeruginosa; also recorded: A. baumannii

1T-198 (MPVSKKRYMLSSAYATALGICYGQVATDEKESEITAIPDLLDYLSVEEYLL; Peptide with targeting and/or antimicrobial activity) [Peptide 1T-198]
Target(s) [4]: P. gingivalis; also recorded: S. epidermidis; also recorded: S. gordonii; also recorded: S. mitis; also recorded: S. mutans; also recorded: S. oralis; also recorded: S. sanguinis

1T-123 (LVRRNAVAGRSDGLAGAEQLDLVRLQGVL; Peptide with targeting and/or antimicrobial activity) [Peptide 1T-123]
Target(s) (microorganism bound by the targeting peptide) [3]: S. gordonii

PF-334 (QQYLILDRM; Peptide with targeting and/or antimicrobial activity)
Target(s) [1]: S. epidermidis; also recorded: C. difficile

1T-109 (VTTNVRQGAGS; Peptide with targeting and/or antimicrobial activity) [Peptide 1T-109]
Target(s) (microorganism bound by the targeting peptide) [3]: A. naeslundii; also recorded: S. epidermidis; also recorded: S. gordonii; also recorded: S. mitis; also recorded: S. mutans; also recorded: S. oralis; also recorded: S. salivarious; also recorded: S. sanguinis

PF-054 (VSISRFIGGGHVFNGNNKRNL; Peptide with targeting and/or antimicrobial activity)
Target(s) [4]: S. epidermidis; also recorded: E. coli

PF-788 (GLITVFAGTARILQLRRAAKKTHAAALR; Peptide with targeting and/or antimicrobial activity)
Target(s) (microorganism bound by the targeting peptide) [2]: Mycobacteria spp.

PEIIKIVSGLL [PF-758]
Target(s) (microorganism bound by the targeting peptide) [2]: S. epidermidis and M. luteus and E. coli and MRSA and S. pneumoniae and E. faecalis and C. jeikeium

PF-709 (NKKHSPMD; Peptide with targeting and/or antimicrobial activity)
Target(s) (microorganism bound by the targeting peptide) [2]: S. mutans

PF-044 (KLKKYIHKPD; Peptide with targeting and/or antimicrobial activity)
Target(s) [4]: S. epidermidis and M. luteus and MRSA and C. jeikeium

1T-139 (AVAGAAVGALLGNDARSTAVGAAIGGALGAGAGELTKNK; Peptide with targeting and/or antimicrobial activity) [Peptide 1T-139]
Target(s) (microorganism bound by the targeting peptide) [3]: A. naeslundii; also recorded: S. gordonii; also recorded: S. mitis; also recorded: S. mutans; also recorded: S. oralis

PF-337 (YMTKKLVEMAERQMAGK; Peptide with targeting and/or antimicrobial activity)
Target(s) [1]: S. epidermidis

PF-309 (GIPGMTAAPAEENEQEENADEE; Peptide with targeting and/or antimicrobial activity)
Target(s) [1]: S. mutans; also recorded: E. coli

PF-S026 (TELKYNGEEYLLLTQRDILAVIEK; Peptide with targeting and/or antimicrobial activity)
Target(s) (microorganism bound by the targeting peptide) [2]: S. epidermidis and MRSA and C. jeikeium

PF-169 (APGSAADSPRSRADD; Peptide with targeting and/or antimicrobial activity)
Target(s) [1]: S. epidermidis; also recorded: E. coli; also recorded: C. albicans; also recorded: E. faecalis; also recorded: C. jeikeium

PF-441 (TQVHKMARGIDPGPANGIYR; Peptide with targeting and/or antimicrobial activity)
Target(s) (microorganisms bound by the targeting peptide) [2]: C. jeikeium

1T-270 (VHEFDIQKILQNR; Peptide with targeting and/or antimicrobial activity) [Peptide 1T-270]
Target(s) [4]: F. nucleatum; also recorded: S. mutans; also recorded: S. oralis; also recorded: S. sanguinis

1T-24 (EEAEEKLAEVSQAVKRLVR; Peptide with targeting and/or antimicrobial activity) [Peptide 1T-24]
Target(s) (microorganism bound by the targeting peptide) [3]: P. aeruginosa

PF-750 (AESSPAKTTA; Peptide with targeting and/or antimicrobial activity)
Target(s) (microorganism bound by the targeting peptide) [2]: M. luteus; also recorded: C. jeikeium

1T-268 (PITPKKEKCGLGTYAPKNPVFSKSRV; Peptide with targeting and/or antimicrobial activity) [Peptide 1T-268]
Target(s) [4]: F. nucleatum; also recorded: S. mutans; also recorded: S. oralis; also recorded: S. sanguinis

PF-062 (MKKKRINNDILGRMIYSSSIDKRNLYNLKYYE; Peptide with targeting and/or antimicrobial activity)
Target(s) [4]: S. epidermidis and M. luteus and E. coli and P. aeruginosa and MRSA and S. pneumoniae and E. faecalis and C. jeikeium

PF-782 (TGPRRGIDLTSNRALSEVLDEGLELNSRK; Peptide with targeting and/or antimicrobial activity)
Target(s) (microorganism bound by the targeting peptide) [2]: Mycobacteria spp.

PF-435 (MSRWDGHSDKGEAPAGKPPMHGFGLNGENK; Peptide with targeting and/or antimicrobial activity)
Target(s) (microorganisms bound by the targeting peptide) [2]: C. jeikeium

PF-706 (LGYGAWIGCGLGLNGFHRID; Peptide with targeting and/or antimicrobial activity)
Target(s) (microorganism bound by the targeting peptide) [2]: L. pneumophila

PF-320 (DSGYYALLENKEERVVWDGEVVANNIFNNLWIVVNKVKTG; Peptide with targeting and/or antimicrobial activity)
Target(s) [1]: S. mutans; also recorded: E. coli

1T-119 (SPATQKAPTRAQPSRAPVQDCGDGRPTAAPDDVERLSPR; Peptide with targeting and/or antimicrobial activity) [Peptide 1T-119]
Target(s) (microorganism bound by the targeting peptide) [3]: S. gordonii; also recorded: S. mitis; also recorded: S. mutans; also recorded: S. oralis

PF-768 (GFRGGKRGGARG; Peptide with targeting and/or antimicrobial activity)
Target(s) (microorganism bound by the targeting peptide) [2]: S. epidermidis; also recorded: S. pneumoniae; also recorded: E. faecalis; also recorded: C. jeikeium
